Measured values: the NIST ThermoML archive (doi:10.1016/j.fluid.2007.07.020)
Several values for one entry are separate records, joined by “and”; a condition that tells them apart may be missing. Identical values can stand only once. Numbers after ± are expanded uncertainties.

Tests used:
[1] = Crystal; DTA
[2] = Molar enthalpy of transition or fusion; conditions: Crystal; DSC

O=C([O-])Cc1ccccc1Nc1c(Cl)cccc1Cl.[Na+] [sodium diclofenac]
Normal melting temperature [1]: 287 ± 3 °C | Molar enthalpy of transition or fusion [2]: 7.6 kcal/mol and 9.5 kcal/mol
